In patent US20040171624A1, “Pharmaceutical composition for treating mood disorders” (priority 2001, published 2004):

System: mouse
Assay type: in vivo
Details: oral administration at 5 g/kg weight
Text: The theanine used in the present invention has high safety. […] Also, especially L-theanine is known as a main component of umami (tastiness) of the green tea, and is also used as a food additive giving umami, without the limitation of its added amount under the regulation for food hygiene. Moreover, contrary to the conventional drugs, since there is no side effect by theanine at all, the mood disorders can be safely and effectively treated, ameliorated or the like according to the composition of the present invention.

CCNC(=O)CC[C@H](N)C(=O)O [theanine] was tested, and the cases of death was “no cases of death”.
